Laboratory results as given in ChEMBL document CHEMBL3297666, “Antibacterial inhibitors of Gram-positive thymidylate kinase: structure-activity relationships and chiral preference of a new hydrophobic binding region” (J Med Chem, 2014).
The source made the active and inactive calls. The rule behind the calls is not given here.

Assays:
[1] = Inhibition of Staphylococcus aureus TMK assessed as decrease in ATP production using dTDP and ADP as substrate after 3.5 hrs by luciferin/luciferase based luminescence analysis
[2] = Retention time of the compound by LC-MS method; assay type: physicochemical
Staphylococcus aureus [3] = test: Antibacterial activity against Staphylococcus aureus ARC 516 assessed as growth inhibition by broth microdilution method; assay type: functional
Staphylococcus aureus [4] = test: Antibacterial activity against methicillin-resistant and quinolone-resistant Staphylococcus aureus ARC 517 assessed as growth inhibition by broth microdilution method; assay type: functional
[5] = Octanol-sodium phosphate buffer partition coefficient, log D of the compound at pH 7.4 by shake-flask method
[6] = Fraction unbound in human plasma at 10 uM after 5 hrs by rapid equilibrium dialysis method; assay type: ADME, cell-free
[7] = Fraction unbound in mouse plasma at 10 uM after 5 hrs by rapid equilibrium dialysis method; assay type: ADME, cell-free
[8] = In vivo clearance in Wistar rat at 5 to 10 mg/kg, iv administered as bolus dose; assay type: ADME, organism-based; set-up: dose 5-10 mg/kg, route intravenous
Streptococcus pneumoniae = test: Antibacterial activity against Streptococcus pneumoniae ARC 2481 assessed as growth inhibition by broth microdilution method; assay type: functional
Streptococcus pyogenes = test: Antibacterial activity against Streptococcus pyogenes ARC 2834 assessed as growth inhibition by broth microdilution method; assay type: functional
[9] = tested on: Staphylococcus epidermidis; test: Antibacterial activity against Staphylococcus epidermidis ARC 323 assessed as growth inhibition by broth microdilution method; assay type: functional
Enterococcus faecium = test: Antibacterial activity against linezolid-resistant Enterococcus faecium ARC 1239 assessed as growth inhibition by broth microdilution method; assay type: functional
Enterococcus faecalis = test: Antibacterial activity against vancomycin-resistant Enterococcus faecalis ARC 1618 assessed as growth inhibition by broth microdilution method; assay type: functional
Escherichia coli = test: Antibacterial activity against Escherichia coli ARC 523 assessed as growth inhibition by broth microdilution method; assay type: functional
Pseudomonas aeruginosa = test: Antibacterial activity against Pseudomonas aeruginosa ARC 545 assessed as growth inhibition by broth microdilution method; assay type: functional
[10] = Ratio of IC50 for human […] to IC50 for Staphylococcus aureus TMK
Staphylococcus aureus [11] = test: Antibacterial activity against methicillin-sensitive Staphylococcus aureus ARC 516 in mouse neutropenic thigh infection model assessed as inhibition of progression of bacterial infection at 100 to 200 mg/kg/day, ip administered once daily starting 2 hrs after infection measured 24 hrs after drug dosing; assay type: functional, organism-based
Staphylococcus aureus [12] = test: Antibacterial activity against methicillin-sensitive Staphylococcus aureus ARC 516 in mouse neutropenic thigh infection model assessed as reduction in number of colony-forming units at 400 mg/kg/day, ip administered bid every 12 hrs as equal divided dose starting 2 hrs after infection measured 24 hrs after drug dosing relative to control; assay type: functional; conditions: route intraperitoneal
[13] = fT>MIC in mouse neutropenic thigh infection model infected with methicillin-sensitive Staphylococcus aureus ARC 516; set-up: species or system Thigh muscle
[14] = Cytotoxicity against human A549 cells; assay type: cell-based; conditions: read-out: MIC
Staphylococcus aureus [15] = test: Antibacterial activity against Staphylococcus aureus assessed as bacterial killing; assay type: functional, organism-based
Staphylococcus aureus [16] = test: Antibacterial activity against Staphylococcus aureus assessed as log cell killing at greater than and equals to 0.5x MIC measured after 4 hrs; assay type: functional
Staphylococcus aureus [17] = test: Antibacterial activity against Staphylococcus aureus assessed as bacterial killing at 0.5 to 1x MIC measured after 24 hrs; assay type: functional, organism-based

Compound	Retention_time [2]	IC50 [1]	MIC (Staphylococcus aureus [3])	MIC (Staphylococcus aureus [4])	logD [5]	other results
Cc1cn([C@H]2CCCN([C@@H](CC(C)C)c3ccc(C(=O)O)c(Oc4cccc(Cl)c4)c3F)C2)c(=O)[nH]c1=O	2 min	1 nM	0.5 µg/mL	0.5 µg/mL	0.57	fraction unbound at 5 h, 10 µM [6]: 0.007; fraction unbound at 5 h, 10 µM [7]: 0.005; clearance [8]: 38 mL/min/kg; MIC90 (Streptococcus pneumoniae): 0.13 µg/mL; MIC (Streptococcus pyogenes): 2 µg/mL; MIC [9]: 4 µg/mL; MIC (Enterococcus faecium): 2 µg/mL; MIC (Enterococcus faecalis): 4 µg/mL; MIC (Escherichia coli): > 64 µg/mL; MIC (Pseudomonas aeruginosa): > 64 µg/mL; Ratio IC50 [10]: > 25000; inhibition (Staphylococcus aureus [11]): Active; fold change (FC) (Staphylococcus aureus [12]): 10; fT>MIC [13]: 27%
CC[C@H](c1ccc(C(=O)O)c(Oc2cccc(Cl)c2)c1F)N1CCC[C@H](n2cc(C)c(=O)[nH]c2=O)C1	1.75 min	2 nM	2 µg/mL	2 µg/mL	0.12	fraction unbound at 5 h, 10 µM [6]: < 0.01; clearance [8]: 119 mL/min/kg
Cc1cn([C@H]2CCCN([C@H](CC(C)C)c3ccc(C(=O)O)c(Oc4cccc(Cl)c4)c3F)C2)c(=O)[nH]c1=O		1 nM	0.25 µg/mL	0.5 µg/mL	0.92	MIC90 (Staphylococcus aureus [3]): 2 µg/mL; MIC90 (Staphylococcus aureus [4]): 2 µg/mL; fraction unbound at 5 h, 10 µM [6]: 0.013; fraction unbound at 5 h, 10 µM [7]: < 0.01; clearance [8]: 84 mL/min/kg; MIC90 (Streptococcus pneumoniae): 0.13 µg/mL; MIC90 (Streptococcus pyogenes): 2 µg/mL; MIC [9]: 2 µg/mL; MIC (Enterococcus faecium): 2 µg/mL; MIC (Enterococcus faecalis): 8 µg/mL; MIC (Escherichia coli): > 64 µg/mL; MIC (Pseudomonas aeruginosa): > 64 µg/mL; Ratio IC50 [10]: > 25000
Cc1cn([C@H]2CCCN(Cc3ccc(C(=O)O)c(Oc4cccc(Cl)c4)c3F)C2)c(=O)[nH]c1=O	1.89 min	12 nM	32 µg/mL	16 µg/mL	-0.59	
CC[C@@H](c1ccc(C(=O)O)c(Oc2cccc(Cl)c2)c1OC)N1CCC[C@H](n2cc(C)c(=O)[nH]c2=O)C1	1.65 min	3 nM	4 µg/mL	2 µg/mL	-0.02	MIC90 (Staphylococcus aureus [3]): 4 µg/mL; MIC90 (Staphylococcus aureus [4]): 4 µg/mL; fraction unbound at 5 h, 10 µM [6]: 0.11; fraction unbound at 5 h, 10 µM [7]: 0.011; clearance [8]: 73 mL/min/kg; MIC90 (Streptococcus pneumoniae): 2 µg/mL; MIC90 (Streptococcus pyogenes): 4 µg/mL; MIC [9]: 4 µg/mL; MIC (Enterococcus faecium): 8 µg/mL; MIC (Enterococcus faecalis): > 8 µg/mL; MIC (Escherichia coli): > 64 µg/mL; MIC (Pseudomonas aeruginosa): > 64 µg/mL; Ratio IC50 [10]: > 25000; MCC [14]: > 64 µg/mL
Cc1cn([C@H]2CCCN(Cc3ccc(C(=O)O)c(Oc4cccc(Cl)c4)c3)C2)c(=O)[nH]c1=O		73 nM	32 µg/mL	32 µg/mL		
CC[C@H](c1ccc(C(=O)O)c(Oc2cccc(Cl)c2)c1)N1CCC[C@H](n2cc(C)c(=O)[nH]c2=O)C1		14 nM	2 µg/mL	2 µg/mL	0.22	Activity (Staphylococcus aureus [15]): Dose-dependent effect; LCK (Staphylococcus aureus [16]): >3; Activity (Staphylococcus aureus [17]): inactive
CCC[C@@H](c1ccc(C(=O)O)c(Oc2cccc(Cl)c2)c1)N1CCC[C@H](n2cc(C)c(=O)[nH]c2=O)C1		18 nM	4 µg/mL	4 µg/mL		
Cc1cn([C@H]2CCCN(Cc3cccc(Oc4cc(F)cc(Cl)c4)c3)C2)c(=O)[nH]c1=O		2060 nM				
CCC[C@@H](c1ccc(C(=O)O)c(Oc2cccc(Cl)c2)c1F)N1CCC[C@H](n2cc(C)c(=O)[nH]c2=O)C1	1.86 min	3 nM	1 µg/mL	0.5 µg/mL	0.51	fraction unbound at 5 h, 10 µM [6]: 0.007; fraction unbound at 5 h, 10 µM [7]: 0.007; clearance [8]: 18 mL/min/kg
CCC[C@@H](c1ccc(C(=O)O)c(Oc2cccc(Cl)c2)c1OC)N1CCC[C@H](n2cc(C)c(=O)[nH]c2=O)C1		4 nM	8 µg/mL	4 µg/mL	0.13	fraction unbound at 5 h, 10 µM [6]: 0.065
CC[C@@H](c1ccc(C(=O)O)c(Oc2cccc(Cl)c2)c1F)N1CCC[C@H](n2cc(C)c(=O)[nH]c2=O)C1	1.72 min	3 nM	4 µg/mL	1 µg/mL	0.11	fraction unbound at 5 h, 10 µM [6]: 0.011
CC[C@H](c1ccc(C(=O)O)c(Oc2cccc(Cl)c2)c1OC)N1CCC[C@H](n2cc(C)c(=O)[nH]c2=O)C1	1.55 min	69 nM	> 16 µg/mL	> 16 µg/mL	-0.13	fraction unbound at 5 h, 10 µM [6]: 0.015; fraction unbound at 5 h, 10 µM [7]: 0.006; clearance [8]: 84 mL/min/kg
Cc1cn([C@H]2CCCN([C@H](CC(C)(C)C)c3ccc(C(=O)O)c(Oc4cccc(Br)c4)c3)C2)c(=O)[nH]c1=O		0.8 nM				MIC90 (Staphylococcus aureus [3]): 1 µg/mL; MIC90 (Staphylococcus aureus [4]): 1 µg/mL; fraction unbound at 5 h, 10 µM [6]: 0.032; fraction unbound at 5 h, 10 µM [7]: < 0.003; clearance [8]: 42 mL/min/kg; MIC90 (Streptococcus pneumoniae): 0.03 µg/mL; MIC90 (Streptococcus pyogenes): 0.5 µg/mL; MIC [9]: 2 µg/mL; MIC (Enterococcus faecium): 0.25 µg/mL; MIC (Enterococcus faecalis): 1 µg/mL; MIC (Escherichia coli): > 64 µg/mL; MIC (Pseudomonas aeruginosa): > 64 µg/mL; Ratio IC50 [10]: > 25000; MCC [14]: > 64 µg/mL
CCC[C@H](c1ccc(C(=O)O)c(Oc2cccc(Cl)c2)c1OC)N1CCC[C@H](n2cc(C)c(=O)[nH]c2=O)C1	2.18 min	30 nM	> 16 µg/mL	> 16 µg/mL	0.08	fraction unbound at 5 h, 10 µM [6]: 0.034
CC[C@@H](c1ccc(C(=O)O)c(Oc2cccc(Cl)c2)c1)N1CCC[C@H](n2cc(C)c(=O)[nH]c2=O)C1		18 nM	2 µg/mL	4 µg/mL	0.22	
CCC[C@H](c1ccc(C(=O)O)c(Oc2cccc(Cl)c2)c1)N1CCC[C@H](n2cc(C)c(=O)[nH]c2=O)C1		8 nM	1 µg/mL	1 µg/mL		
Cc1cn([C@H]2CCCN(Cc3cccc(Oc4cccc(Cl)c4)c3)C2)c(=O)[nH]c1=O		1170 nM				
CCC[C@H](c1ccc(C(=O)O)c(Oc2cccc(Cl)c2)c1F)N1CCC[C@H](n2cc(C)c(=O)[nH]c2=O)C1	1.84 min	6 nM	2 µg/mL	1 µg/mL	0.53	fraction unbound at 5 h, 10 µM [6]: < 0.01; clearance [8]: 64 mL/min/kg
COc1c(CN2CCC[C@H](n3cc(C)c(=O)[nH]c3=O)C2)ccc(C(=O)O)c1Oc1cccc(Cl)c1	2.17 min	10 nM	8 µg/mL	16 µg/mL	-0.77	

The next lines start with results.

Retention_time [2]	Compound	IC50 [1]	MIC (Staphylococcus aureus [3])	MIC (Staphylococcus aureus [4])	logD [5]	other results
2.5 min	CCCc1c(CN2CCC[C@H](n3cc(C)c(=O)[nH]c3=O)C2)cccc1Oc1cc(F)cc(Cl)c1	67400 nM				
1.23 min	O=Cc1cccc(O)c1F					
3.24 min	CC(C)CC(O)c1ccc(Br)c(F)c1F (stereo unspecified)					
1.99 min	Cc1cn([C@H]2CCCN(C(CC(C)C)c3ccc(C(=O)O)c(Oc4cccc(Cl)c4)c3F)C2)c(=O)[nH]c1=O (stereo partly specified)					
2.16 min	Cc1cn([C@H]2CCCN(Cc3cccc(Oc4cccc(Cl)c4)c3C#N)C2)c(=O)[nH]c1=O	1190 nM				
2.62 min	Cc1cn([C@H]2CCCN(C(CC(C)C)c3ccc(C#N)c(Oc4cccc(Cl)c4)c3F)C2)c(=O)[nH]c1=O (stereo partly specified)					
2.3 min	Cc1c(CN2CCC[C@H](n3cc(C)c(=O)[nH]c3=O)C2)cccc1Oc1cc(F)cc(Cl)c1	9260 nM				
3.1 min	Cc1cn([C@H]2CCCN(C(CC(C)C)c3ccc(Br)c(F)c3F)C2)c(=O)[nH]c1=O (stereo partly specified)					
2.88 min	O=Cc1cccc(Oc2cccc(Cl)c2)c1F					
3 min	COc1c(CN2CCC[C@H](n3cc(C)c(=O)[nH]c3=O)C2)cccc1Oc1cc(F)cc(Cl)c1	474 nM				
2.34 min	Cc1cn([C@H]2CCCN(Cc3cccc(Oc4cc(F)cc(Cl)c4)c3Br)C2)c(=O)[nH]c1=O	581 nM				
2.29 min	CCC(c1ccc(C(=O)O)c(Oc2cccc(Cl)c2)c1OC)N1CCC[C@H](n2cc(C)c(=O)[nH]c2=O)C1 (stereo partly specified)					
2 min	Cc1cn([C@H]2CCCN(Cc3cccc(Oc4cccc(Cl)c4)c3F)C2)c(=O)[nH]c1=O	86 nM				
3.27 min	CCC(O)c1ccc(Br)c(Oc2cccc(Cl)c2)c1OC (stereo unspecified)					
3.28 min	COc1c(C=O)ccc(Br)c1Oc1cccc(Cl)c1					
2.31 min	Cc1cn([C@H]2CCCN(Cc3cccc(Oc4cc(F)cc(Cl)c4)c3Cl)C2)c(=O)[nH]c1=O	779 nM				
1.93 min	Cc1cn([C@H]2CCCN(C(CC(C)C)c3ccc(C#N)c(F)c3F)C2)c(=O)[nH]c1=O (stereo partly specified)					
2.41 min	CCC(c1ccc(Br)c(Oc2cccc(Cl)c2)c1OC)N1CCC[C@H](n2cc(C)c(=O)[nH]c2=O)C1 (stereo partly specified)					
2.32 min	CCOc1c(CN2CCC[C@H](n3cc(C)c(=O)[nH]c3=O)C2)cccc1Oc1cc(F)cc(Cl)c1	625 nM				
